Consider 29 molecules from ChEMBL document CHEMBL1144045, “Potent achiral agonists of the growth hormone secretagogue (ghrelin) receptor. Part 2: Lead optimisation” (Bioorg Med Chem Lett, 2008).

pEC50, pKi: −log10 of the molar value. A value given as a limit tells only on which side of the number the result lay.

Series [1] has as its target T1, Growth hormone secretagogue receptor type 1 (Homo sapiens, UniProt Q92847). The experiment in a line: Agonist activity at human GHSR1a by FLIPR assay relative to human ghrelin. In kind it is functional.
For series [2], the target named is T1, Growth hormone secretagogue receptor type 1. The series can be described thus: Agonist activity at human GHSR1a by FLIPR assay. It counts as functional.
Series [3] concerns the target 5-hydroxytryptamine receptor 1B (Homo sapiens, UniProt P28222). The experiment in a line: Binding affinity to 5HT1B receptor.
In the next series the test system is Rattus norvegicus. The series can be described thus: Effect on food intake in Sprague-Dawley rat at 3 mg/kg, po after 2 hrs. In kind it is functional.
A short description of series [4]: Oral bioavailability in Sprague-Dawley rat at 3 mg/kg. In kind it is ADME, organism-based. The settings on record: in vivo.
A short description of series [5]: Clearance in Sprague-Dawley rat at 1 mg/kg, iv. It counts as ADME, organism-based. More on the design: dose 1 mg/kg, route intravenous. The settings on record: in vivo.
Series [6] can be described thus: Half life in Sprague-Dawley rat. In kind it is ADME, organism-based. The settings on record: in vivo.
Series [7] can be described thus: Volume of distribution at steady state in Sprague-Dawley rat. It counts as ADME, organism-based. To be noted: in vivo, read-out: Vdss.

T1 sequence (Q92847 whole entry): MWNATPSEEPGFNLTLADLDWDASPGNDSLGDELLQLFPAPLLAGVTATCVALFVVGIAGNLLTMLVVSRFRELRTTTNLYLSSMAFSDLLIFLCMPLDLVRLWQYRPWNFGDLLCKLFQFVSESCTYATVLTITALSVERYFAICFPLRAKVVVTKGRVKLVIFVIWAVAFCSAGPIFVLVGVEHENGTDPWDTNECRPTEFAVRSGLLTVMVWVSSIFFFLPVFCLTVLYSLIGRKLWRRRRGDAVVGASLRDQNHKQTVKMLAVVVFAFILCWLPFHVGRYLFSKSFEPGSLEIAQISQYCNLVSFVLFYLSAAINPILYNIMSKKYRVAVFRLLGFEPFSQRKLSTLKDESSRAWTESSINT
Sequence of 5-hydroxytryptamine receptor 1B (P28222 whole entry): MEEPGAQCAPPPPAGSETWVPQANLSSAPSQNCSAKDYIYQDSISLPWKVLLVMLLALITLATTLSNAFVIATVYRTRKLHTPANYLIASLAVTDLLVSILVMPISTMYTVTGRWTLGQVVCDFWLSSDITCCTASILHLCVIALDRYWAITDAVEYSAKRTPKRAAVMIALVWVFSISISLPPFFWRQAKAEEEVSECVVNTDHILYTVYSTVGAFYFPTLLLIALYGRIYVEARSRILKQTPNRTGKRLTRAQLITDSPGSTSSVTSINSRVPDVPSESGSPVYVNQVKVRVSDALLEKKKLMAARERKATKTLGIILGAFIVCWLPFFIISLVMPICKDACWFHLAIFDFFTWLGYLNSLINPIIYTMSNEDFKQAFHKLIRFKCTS

As a reminder, the pEC50 is the negative decadic logarithm of the EC50, by convention in mol/L. A higher pEC50 goes with a small EC50. As to `COc1ccc(N2C[C@@H](C)N[C@@H](C)C2)cc1NS(=O)(=O)c1ccc(-c2cc(Cl)ccc2F)cc1`, in series [1], the Intrinsic activity came out at 1. In series [2], the pEC50 is 9.30.

As to `COc1ccc(N2C[C@@H](C)N[C@@H](C)C2)cc1NS(=O)(=O)c1ccc(OCc2ccccc2)cc1`, the Intrinsic activity in series [1] stood at 0.8. The molecule further showed a pEC50 in series [2] of 7.00.

`COc1ccc(N2C[C@@H](C)N[C@@H](C)C2)cc1NS(=O)(=O)c1ccc(-c2cncnc2)cc1` returned an Intrinsic activity in series [1] of 0.6. Moreover, the negative-log EC50 (pEC50) in series [2] was 6.50.

Molecule `C[C@@H]1CN(c2ccc(C(=O)N(C)C)c(NS(=O)(=O)c3ccc(-c4ccccn4)s3)c2)C[C@H](C)N1` displayed an Intrinsic activity in series [1] of 0.9. In series [2], the negative-log EC50 (pEC50) is 6.10.

`COc1ccc(N2C[C@@H](C)N[C@@H](C)C2)cc1NS(=O)(=O)c1ccc(-n2cccn2)cc1` gave an Intrinsic activity in series [1] of 0.8. The pEC50 in series [2] is 7.80.

In series [1], `COc1ccc(N2C[C@@H](C)N[C@@H](C)C2)cc1NS(=O)(=O)c1cccc(-c2ccccc2)c1` gave an Intrinsic activity of 1. The negative-log EC50 (pEC50) in series [2] was 6.80.

`COc1ccc(N2C[C@@H](C)N[C@@H](C)C2)cc1NS(=O)(=O)c1ccc(N2CCCC2=O)cc1`: the Intrinsic activity in series [1] was determined as 0.8. This molecule also showed a pEC50 in series [2] of 7.40.

`COc1ccc(N2C[C@@H](C)N[C@@H](C)C2)cc1NS(=O)(=O)c1ccc(Br)cc1` came in with an Intrinsic activity in series [1] of 0.7. This molecule showed a pEC50 in series [2] of 6.90.

In turn, `C[C@@H]1CN(c2ccc(F)c(NS(=O)(=O)c3ccc(-c4ccccn4)s3)c2)C[C@H](C)N1` displayed an Intrinsic activity in series [1] of 0.8. The molecule further had a pEC50 in series [2] of 7.00.

In the case of `COc1ccc(N2C[C@@H](C)N[C@@H](C)C2)cc1NS(=O)(=O)c1ccc(-c2cccs2)cc1F`, in series [1], the Intrinsic activity is 0.9. In series [2], this molecule showed a pEC50 of 8.70.

`CC(=O)c1ccc(N2C[C@@H](C)N[C@@H](C)C2)cc1NS(=O)(=O)c1ccc(-c2ccccn2)s1`: in series [1], the Intrinsic activity stood at 0.9. The molecule also had a pEC50 in series [2] of 7.40.

Regarding `C[C@@H]1CN(c2ccc(Cl)c(NS(=O)(=O)c3ccc(-c4ccccn4)s3)c2)C[C@H](C)N1`, the Intrinsic activity in series [1] amounted to 1. The molecule also showed a negative-log EC50 (pEC50) in series [2] of 7.40.

`COc1ccc(N2C[C@@H](C)N[C@@H](C)C2)cc1NS(=O)(=O)c1cccc(-c2ccco2)c1`: in series [1], the Intrinsic activity was found to be 1. Further, the pEC50 in series [2] is 7.70.

For `COc1cccc(-c2ccc(S(=O)(=O)Nc3cc(N4C[C@@H](C)N[C@@H](C)C4)ccc3OC)cc2)c1`, the Intrinsic activity in series [1] stood at 1. This molecule had a pEC50 in series [2] of 8.70.

Regarding `COc1ccc(N2C[C@@H](C)N[C@@H](C)C2)cc1NS(=O)(=O)c1ccc(-c2ccco2)cc1`, the Intrinsic activity in series [1] came out at 0.9. Also, the pEC50 in series [2] was 8.40.

In the case of `COc1ccc(N2C[C@@H](C)N[C@@H](C)C2)cc1NS(=O)(=O)c1ccc(-c2cccs2)cc1Cl`, the Intrinsic activity in series [1] turned out to be 0.9. The molecule further showed a pEC50 in series [2] of 9.10.

Turning to `COc1ccc(N2C[C@@H](C)N[C@@H](C)C2)cc1NS(=O)(=O)c1ccc(-c2ccncc2)cc1`, the Intrinsic activity in series [1] is 0.7. In series [2], this molecule showed a pEC50 of 6.50.

`C[C@@H]1CN(c2cc(NS(=O)(=O)c3ccc(-c4ccccn4)s3)ccc2C#N)C[C@H](C)N1` registered an Intrinsic activity in series [1] of 0.9. Further, the pEC50 in series [2] was 6.20.

Consider `CC(C)Oc1ccc(N2C[C@@H](C)N[C@@H](C)C2)cc1NS(=O)(=O)c1ccc(-c2ccccn2)s1`, for which the Intrinsic activity in series [1] worked out at 1.1. This molecule also had a pEC50 in series [2] of 7.00.

For `C[C@@H]1CN(c2cccc(NS(=O)(=O)c3ccc(-c4ccccn4)s3)c2)C[C@H](C)N1`, in series [1], the Intrinsic activity was determined as 0.8. The pEC50 in series [2] was 7.40.

For the molecule `COc1ccc(N2C[C@@H](C)N[C@@H](C)C2)cc1NS(=O)(=O)c1ccc(-c2ccccc2)cc1`, the Intrinsic activity in series [1] was 1. In series [2], the pEC50 was 8.20.

As for `COc1ccc(N2C[C@@H](C)N[C@@H](C)C2)cc1NS(=O)(=O)c1ccc(-c2ccccn2)s1`, in series [1], the Intrinsic activity is 1.1. This molecule had a pEC50 in series [2] of 8.00.

With `CCOc1ccc(N2C[C@@H](C)N[C@@H](C)C2)cc1NS(=O)(=O)c1ccc(-c2ccccn2)s1`, the Intrinsic activity in series [1] was 0.8. For the same molecule, the pEC50 in series [2] was 7.40.

With `COc1ccc(NS(=O)(=O)c2ccc(-c3ccccn3)s2)cc1N1C[C@@H](C)N[C@@H](C)C1`, the Intrinsic activity in series [1] was determined as 0.9. This molecule had a negative-log EC50 (pEC50) in series [2] of 7.80.

As usually defined, the pKi is the Ki on a negative log10 scale, so that one unit is a factor of ten. What is called bioavailability is dose-corrected exposure relative to a reference, in per cent. Low readings indicate poor availability, high ones good availability. One may read the clearance as a measure of how efficiently the substance is removed, as volume per time. Low readings indicate a low capacity for elimination, high ones a high capacity for elimination. Broadly, the half-life is how long it takes for the measured level to halve. A high value points to slow loss. In the case of `COc1ccc(N2C[C@@H](C)N[C@@H](C)C2)cc1NS(=O)(=O)c1ccc(-c2ccc(C)o2)cc1`, in series [1], the Intrinsic activity was found to be 1. For the same molecule, the pKi in series [3] was less than 5.50. In the series on Rattus norvegicus, this molecule gave an Activity of 544%. The molecule further showed a bioavailability in series [4] of 75%. Also, the clearance in series [5] came out at 24 mL/min/kg. This molecule also had a half-life in series [6] of 1.9 h. For the same molecule, the Vd in series [7] was 3.3 L/kg. In series [2], this molecule showed a pEC50 of 9.10.

As to `COc1ccc(N2C[C@@H](C)N[C@@H](C)C2)cc1NS(=O)(=O)c1ccc(-c2cnco2)s1`, the Intrinsic activity in series [1] came out at 0.9. The pEC50 in series [2] is 8.60.

`COc1ccc(F)c(-c2ccc(S(=O)(=O)Nc3cc(N4C[C@@H](C)N[C@@H](C)C4)ccc3OC)cc2)c1` yielded an Intrinsic activity in series [1] of 1.2. This molecule had a pEC50 in series [2] of 9.40.

Regarding `COc1ccc(N2C[C@@H](C)N[C@@H](C)C2)cc1NS(=O)(=O)c1ccc(-c2cccs2)cc1`, the Intrinsic activity in series [1] amounted to 1. This molecule had a pKi in series [3] of less than 5.50. The molecule further yielded an Activity in the series with Rattus norvegicus of 292%. Also, in series [4], the bioavailability worked out at 74%. The clearance in series [5] was determined as 26 mL/min/kg. In series [6], this molecule gave a half-life of 1 h. Besides, in series [7], the Vd was found to be 1.6 L/kg. In addition, the pEC50 in series [2] is 8.40.

As to `COc1ccc(N2C[C@@H](C)N[C@@H](C)C2)cc1NS(=O)(=O)c1ccc(Oc2ccccc2)cc1`, in series [1], the Intrinsic activity was found to be 0.9. In addition, the pEC50 in series [2] was 7.20.
